Data: patent US20220226508A1, “METHODS AND COMPOSITIONS FOR TREATING EPILEPSY” (THE REGENTS OF THE UNIVERSITY OF CALIFORNIA, priority 2019, published 2022)
Entries after “also recorded” stand apart in the source; their conditions may differ. Read-outs that look alike come from different tables or passages of the source.

How the values were obtained:
human 5-HT2AR [1] = molecular target: T1, human 5-HT2AR (Homo sapiens, UniProt P28223); conditions: known drugs and commercial compounds; read-out: binding affinity (Ki) 5-HT2A / 5-HT2AR; cited from earlier work
T1 construct: expressed in transfected cells

scn1lab mutant zebrafish [2] = test: Toxicity in larvae after 90 min drug exposure (heartbeat, escape response); format: in vivo, zebrafish (Danio rerio)
Procedure: (§1) Seizure monitoring. At 5 dpf individual zebrafish larvae were placed into a single well of a clear flat-bottomed 96-well microplate containing embryo media. Larvae were selected randomly as sex determination is not possible at this stage of development. All drug screening experiments were conducted in an unbiased manner by investigators blinded to the test compounds and all files coded for post hoc analysis. Microplates were placed inside the DanioVision and acclimated for 20 min at room temperature. Locomotion plots were obtained for each well at a recording epoch of 10 min using EthoVision XT software (DanioVision, Noldus Information Technology). Seizure scoring was performed using the following three-stage scale established for pentylenetetrazole-induced seizures: Stage 0, no or very little swim activity; Stage I, increased, brief bouts of swim activity; Stage II, rapid “whirlpool-like” circling swim behavior; and Stage III, paroxysmal whole-body clonus-like convulsions, and a brief loss of posture. WT fish are typically scored at Stage 0 or I. Plots were analyzed for distance travelled (in millimeters) and mean velocity (in millimeters per second). After 90 mins of drug exposure larvae were examined for toxic side-effects. Compounds that decreased or stopped the larva heartbeat, or reduced or eliminated the escape response when touched, were considered toxic.

human 5-HT2CR [3] = molecular target: T2, human 5-HT2CR (Homo sapiens, UniProt P28335); conditions: known drugs and commercial compounds; read-out: binding affinity (Ki) 5-HT2C / 5-HT2CR; cited from earlier work
T2 construct: expressed in transfected cells
T2 sequence (P28335 33-458): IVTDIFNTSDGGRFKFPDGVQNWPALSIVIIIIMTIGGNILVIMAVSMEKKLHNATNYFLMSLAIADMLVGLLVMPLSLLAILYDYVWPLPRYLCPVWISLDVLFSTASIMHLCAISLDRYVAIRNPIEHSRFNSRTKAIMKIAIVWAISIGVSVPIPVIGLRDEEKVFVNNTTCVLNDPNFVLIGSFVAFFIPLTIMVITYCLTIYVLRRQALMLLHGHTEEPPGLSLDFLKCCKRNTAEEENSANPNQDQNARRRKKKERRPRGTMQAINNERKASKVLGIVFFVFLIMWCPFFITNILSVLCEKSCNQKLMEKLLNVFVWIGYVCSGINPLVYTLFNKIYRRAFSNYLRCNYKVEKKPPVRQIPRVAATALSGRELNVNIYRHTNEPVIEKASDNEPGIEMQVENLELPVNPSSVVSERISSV

scn1lab mutant zebrafish [4] = test: Locomotion assay of high-velocity seizure-like swim behavior; format: in vivo, zebrafish (Danio rerio); conditions: for suppression of seizure-like swim behavior (change in mean velocity): independently resynthesized compounds retested at 10, 50, 100 and 250 μM; for suppression of seizure-like swim behavior (change in mean swim velocity): initial library screen at 100 μM and 250 μM, 5 dpf larvae, threshold reduction ≥40%
Excerpt: Zebrafish maintenance. Zebrafish were raised under standard laboratory conditions in accordance with requirements outlined in the Guide for the Care and Use of Animals (ebrary Inc., 2011) and experiments were approved by the Institutional Animal Care and Use Committee (protocol #AN108659-03). Embryos were obtained by natural spawning of scn1lab (didy^s552) heterozygous animals that had been outcrossed to TL strain. Homozygous scn1lab mutants (n=2500) have dispersed melanosomes and appear visibly darker by 3 dpf compared to WT larvae.
as §1
Statistics. Data are presented as the mean±standard error of the mean (SEM), unless otherwise stated. For behavior analysis, the threshold for a change in mean swim velocity ≥40% (>1.5×SD of 250 control treated scn1lab) is considered significant. For comparison between more than two groups one-way ANOVA analysis was used. […] Differences considered statistically significant are indicated with asterisks (*P<0.05; **P<0.01).

human 5-HT2BR [5] = molecular target: T3, human 5-HT2BR (Homo sapiens, UniProt P41595); conditions: known drugs and commercial compounds; read-out: binding affinity (Ki) 5-HT2B / 5-HT2BR; cited from earlier work
T3 construct: expressed in transfected cells

scn1lab mutant zebrafish [6] = test: Local field potential (LFP) electrophysiology of electrographic seizure events; format: in vivo, zebrafish (Danio rerio); conditions: 10 min LFP recording, 5 dpf larvae
Procedure: For electrophysiology studies, zebrafish larvae were anesthetized with cold and immobilized in 1.2% agarose; local field potential (LFP) recordings were obtained from forebrain or optic tectum structures using a single-electrode approach, as previously described (Baraban, S. C. et al., Neuroscience, 131, 759-768, 2005). Agarose-embedded LFP recording sessions of 10 min were obtained at 1 kHz. Epileptiform events were identified post hoc and defined as multi-spike or poly-spike upward or downward membrane deflections greater than 3× baseline noise level and 150-250 ms in duration (interictal-like) or greater than 5× baseline noise, multi-spike and >500 ms in duration (ictal-like); both events were counted using threshold detection settings in Clampfit (Molecular Devices; Sunnyvale, Calif.). During electrophysiology experiments larvae were continuously monitored for blood flow and heart rate using an Axiocam digital camera at video frame rate.
Monitoring electrographic brain activity to confirm seizure suppression is an essential assay to eliminate false positives from behavioral testing (Griffin, A. et al., Frontiers in Pharmacology, 9, 2018). By placing a microelectrode into a visually identified brain region of an agar-immobilized zebrafish larval, stable local field potential (LFP) recordings can be monitored for several hours (Baraban, S. C. et al., Nat Commun, 4, 2410, 2013). At 5 dpf LFP recordings of scn1Lab zebrafish larvae show an average of 250 abnormal electrographic seizure events during a 10 min recording epoch.

human 5-HT2R = test: Radioligand binding assays (NIMH PDSP), 5-HT2R subtypes together; conditions: 5-HT2AR, 5-HT2BR, 5-HT2CR
Procedure: (§2) Receptor Binding Assays. In vitro binding assay and Ki data were performed by the US National Institute of Mental Health Psychoactive Drug Screening Program (NIMH PDSP). Drugs were screened against recombinant, stably expressed human 5-HT2AR, 5-HT2BR, 5-HT2CR and H1.

human H1 receptor = human H1 receptor (Homo sapiens, UniProt P35367); test: Radioligand binding assay (NIMH PDSP), H1; parameters: expressed in transfected cells
Procedure: as §2, with “H1. For specific binding assays please refer to detailed procedures at https://pdspdb.unc.edu/pdspWeb/ (Besnard, J. et al., Nature, 492, 215-220, 2012).” for “H1.”

human 5-HT2CR [7] = molecular target: T2, human 5-HT2CR; test: Radioligand binding assay (NIMH PDSP), 5-HT2CR
Procedure: as §2, with “H1. For specific binding assays please refer to detailed procedures at https://pdspdb.unc.edu/pdspWeb/ (Besnard, J. et al., Nature, 492, 215-220, 2012).” for “H1.”

human 5-HT2AR [8] = molecular target: T1, human 5-HT2AR; test: biochemical; format: binding
Procedure: as §2, with “H1. For specific binding assays please refer to detailed procedures at https://pdspdb.unc.edu/pdspWeb/ (Besnard, J. et al., Nature, 492, 215-220, 2012).” for “H1.”

human 5-HT2BR [9] = molecular target: T3, human 5-HT2BR; test: biochemical; format: binding; conditions: for specificity / selectivity for 5-HT2BR over other 5-HT2R subtypes: radioligand binding
Procedure: as §2, with “H1. For specific binding assays please refer to detailed procedures at https://pdspdb.unc.edu/pdspWeb/ (Besnard, J. et al., Nature, 492, 215-220, 2012).” for “H1.”

[10] = Solubility in the screening medium; format: physicochemical; conditions: 250 μM
Procedure: 10 mM compound stock solutions were made in DMSO and then diluted in embryo medium for assays.

[11] = read-out: binding affinity (Ki) H1
[12] = read-out: binding affinity (Ki) 5-HT2CR
[13] = read-out: binding affinity (Ki) 5-HT2AR
[14] = read-out: binding affinity (Ki) 5-HT2BR
[15] = clemizole analogs, recombinant human receptor, read-out: binding affinity (Ki) H1
[16] = 30 and 90 min exposure, threshold ≥40%
[17] = clemizole analogs, recombinant human receptor, read-out: binding affinity (Ki) 5-HT2BR
[18] = clemizole analogs, recombinant human receptor, read-out: binding affinity (Ki) 5-HT2CR

human H1 receptor, sequence (P35367 whole entry): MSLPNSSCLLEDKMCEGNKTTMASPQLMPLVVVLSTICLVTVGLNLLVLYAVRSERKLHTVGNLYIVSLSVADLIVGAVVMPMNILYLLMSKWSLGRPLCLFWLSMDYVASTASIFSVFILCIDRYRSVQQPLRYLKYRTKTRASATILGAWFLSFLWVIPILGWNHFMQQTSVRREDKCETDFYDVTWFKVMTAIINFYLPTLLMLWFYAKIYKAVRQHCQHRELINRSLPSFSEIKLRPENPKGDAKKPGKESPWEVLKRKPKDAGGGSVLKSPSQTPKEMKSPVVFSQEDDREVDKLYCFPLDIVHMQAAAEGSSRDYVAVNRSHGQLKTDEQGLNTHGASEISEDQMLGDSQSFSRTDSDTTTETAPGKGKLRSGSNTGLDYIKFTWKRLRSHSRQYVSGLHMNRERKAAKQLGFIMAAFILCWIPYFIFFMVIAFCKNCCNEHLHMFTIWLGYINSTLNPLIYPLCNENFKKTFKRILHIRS
T1 sequence (P28223 whole entry): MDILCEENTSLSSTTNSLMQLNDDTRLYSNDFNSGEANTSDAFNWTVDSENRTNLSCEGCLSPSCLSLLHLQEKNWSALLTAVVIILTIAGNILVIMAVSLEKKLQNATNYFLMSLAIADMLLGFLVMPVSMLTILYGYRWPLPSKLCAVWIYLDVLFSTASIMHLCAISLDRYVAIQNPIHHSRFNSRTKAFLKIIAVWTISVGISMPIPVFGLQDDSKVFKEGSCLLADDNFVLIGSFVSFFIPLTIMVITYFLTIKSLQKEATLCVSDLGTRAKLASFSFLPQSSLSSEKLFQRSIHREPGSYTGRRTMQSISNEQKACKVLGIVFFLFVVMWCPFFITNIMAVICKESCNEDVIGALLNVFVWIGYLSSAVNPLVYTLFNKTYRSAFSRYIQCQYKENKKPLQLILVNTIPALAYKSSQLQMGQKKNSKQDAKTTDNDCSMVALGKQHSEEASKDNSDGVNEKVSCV
T3 sequence (P41595 whole entry): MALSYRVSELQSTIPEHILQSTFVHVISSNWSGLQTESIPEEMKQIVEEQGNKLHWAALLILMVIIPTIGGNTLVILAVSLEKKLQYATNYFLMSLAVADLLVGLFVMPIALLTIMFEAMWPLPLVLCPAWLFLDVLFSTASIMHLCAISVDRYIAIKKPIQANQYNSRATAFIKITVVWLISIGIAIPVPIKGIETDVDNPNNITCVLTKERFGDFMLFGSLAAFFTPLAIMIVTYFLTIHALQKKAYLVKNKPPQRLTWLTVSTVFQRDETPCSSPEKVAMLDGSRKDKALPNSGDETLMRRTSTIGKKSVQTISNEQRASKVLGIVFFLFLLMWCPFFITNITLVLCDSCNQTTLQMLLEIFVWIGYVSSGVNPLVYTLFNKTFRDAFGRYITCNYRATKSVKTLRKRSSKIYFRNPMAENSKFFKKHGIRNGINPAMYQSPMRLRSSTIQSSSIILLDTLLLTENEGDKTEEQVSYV

c1cnc(N2CCN(Cc3ccc4c(c3)OCO4)CC2)nc1 [piribedil]
Ki (human 5-HT2AR [1]): > 10000 nM
toxicity after 90-min exposure (scn1lab mutant zebrafish [2]; 100 μM): toxicity
toxicity after 90-min exposure (scn1lab mutant zebrafish [2]; 250 μM): toxicity
Ki (human 5-HT2CR [3]): > 10000 nM

CC[C@@H](CO)NC(=O)[C@@H]1C=C2c3cccc4[nH]cc(c34)C[C@H]2N(C)C1 [methylergonovine, reference compound]
effect on seizure-like swim behavior (change in mean velocity) (scn1lab mutant zebrafish [4]; commercial 5-HT2BR/dopamine agonists, three concentrations, 30 and 90 min exposure, threshold ≥40%): suppressed convulsive swim behaviors in a concentration-dependent manner
Ki (human 5-HT2BR [5]): 2.2 nM
Ki (human 5-HT2CR [3]): 4.6 nM
frequency of electrographic seizure (epileptiform) events (scn1lab mutant zebrafish [6]; 250 μM): significant changes in the frequency of events; also recorded: significantly suppressed the frequency of electrographic seizure events

c1cn(CC2CCCCC2)c(CN2CCCC2)n1 [Compound 21]
binding to any human 5-HT2R (human 5-HT2R): no significant binding
Ki (human H1 receptor; [11]): > 10000 nM
Ki (human 5-HT2CR [7]; [12]): > 10000 nM
Ki (human 5-HT2AR [8]; [13]): > 10000 nM
Ki (human 5-HT2BR [9]; [14]): > 10000 nM

N#Cc1cccc(Cn2c(CN3CCCC3)nc3ccccc32)c1 [Compound 10]
binding to any human 5-HT2R (human 5-HT2R): no significant binding
Ki (human H1 receptor; [11]): 351 nM
Ki (human 5-HT2CR [7]; [12]): > 10000 nM
Ki (human 5-HT2AR [8]; [13]): > 10000 nM
Ki (human 5-HT2BR [9]; [14]): > 10000 nM

c1ccc2c(c1)nc(CN1CCCC1)n2CC1CCCC1 [Compound 20, 1-(Cyclopentylmethyl)-2-[(pyrrolidin-1-yl)methyl]-1H-benzimidazole]
Ki (human H1 receptor; [15]): 161 nM
suppression of seizure-like swim behavior (change in mean velocity) (scn1lab mutant zebrafish [4]; [16]): reduced the high-velocity seizure-like swim behavior
suppression of seizure-like swim behavior (change in mean swim velocity) (scn1lab mutant zebrafish [4]): effective in suppressing
Ki (human 5-HT2CR [7]; [12]): > 10000 nM
Ki (human 5-HT2AR [8]; [13]): > 10000 nM
Ki (human 5-HT2BR [9]; [17]): 772 nM
specificity / selectivity for 5-HT2BR over other 5-HT2R subtypes (human 5-HT2BR [9]): specificity for 5-HT2BR over other 5-HT2R subtypes; also recorded: significant preference for 5-HT2BR
frequency of electrographic seizure (epileptiform) events (scn1lab mutant zebrafish [6]; 100 μM): significant changes in the frequency of events; also recorded: significant suppression of electrographic seizure activity

Clc1ccc(Cn2c(CN3CCOCC3)nc3ccccc32)cc1 [Compound 23]
Ki (human H1 receptor; [11]): 34 nM
toxicity after 90-min exposure (scn1lab mutant zebrafish [2]; initial library screen, concentration not given): toxic
Ki (human 5-HT2CR [7]; [12]): > 10000 nM
Ki (human 5-HT2AR [8]; [13]): > 10000 nM
specificity / selectivity for 5-HT2BR over other 5-HT2R subtypes (human 5-HT2BR [9]): selectivity for 5-HT2BR
Ki (human 5-HT2BR [9]; [14]): 515 nM

FC1(F)CCC(Cn2c(CN3CCCC3)nc3ccccc32)CC1 [Compound 17]
binding to any human 5-HT2R (human 5-HT2R): no significant binding
Ki (human H1 receptor; [11]): 137 nM
Ki (human 5-HT2CR [7]; [12]): > 10000 nM
Ki (human 5-HT2AR [8]; [13]): > 10000 nM
Ki (human 5-HT2BR [9]; [14]): > 10000 nM

c1ccc2c(c1)nc(CN1CCCC1)n2CC1CCOCC1 [Compound 15]
binding to any human 5-HT2R (human 5-HT2R): no significant binding
Ki (human H1 receptor): 865 nM
Ki (human 5-HT2CR [7]): > 10000 nM
Ki (human 5-HT2AR [8]): > 10000 nM
Ki (human 5-HT2BR [9]): > 10000 nM

FC(F)(F)c1ccc(Cn2c(CN3CCCC3)nc3ccccc32)cc1 [Compound 6, 2-[(Pyrrolidin-1-yl)methyl]-1-{[4-(trifluoromethyl)phenyl]methyl}-1H-benzimidazole]
Ki (human H1 receptor; [15]): 16 nM
suppression of seizure-like swim behavior (change in mean velocity) (scn1lab mutant zebrafish [4]; [16]): reduced the high-velocity seizure-like swim behavior
suppression of seizure-like swim behavior (change in mean swim velocity) (scn1lab mutant zebrafish [4]): effective in suppressing
Ki (human 5-HT2CR [7]; [12]): > 10000 nM
Ki (human 5-HT2AR [8]; [13]): > 10000 nM
Ki (human 5-HT2BR [9]; clemizole analogs, recombinant human receptor, listed as Comp. 6, read-out: binding affinity (Ki) 5-HT2BR): 258 nM
Ki (human 5-HT2BR [9]; [17]): 285 nM
specificity / selectivity for 5-HT2BR over other 5-HT2R subtypes (human 5-HT2BR [9]): specificity for 5-HT2BR over other 5-HT2R subtypes; also recorded: significant preference for 5-HT2BR
frequency of electrographic seizure (epileptiform) events (scn1lab mutant zebrafish [6]; 100 μM): significant changes in the frequency of events; also recorded: significant suppression of electrographic seizure activity

Clc1ccc(Cn2ccnc2CN2CCCC2)cc1 [Compound 9, 1-[(4-Chlorophenyl)methyl]-2-[(pyrrolidin-1-yl)methyl]-1H-imidazole]
Ki (human H1 receptor; [15]): 29 nM
toxicity after 90-min exposure (scn1lab mutant zebrafish [2]; 250 μM): toxic
suppression of seizure-like swim behavior (change in mean swim velocity) (scn1lab mutant zebrafish [4]): effective in suppressing
Ki (human 5-HT2CR [7]; [18]): 447 nM

CC(C)(C)OC(=O)N1CCN(Cc2nc3ccccc3n2Cc2ccc(Cl)cc2)CC1 [Compound 25, tert-Butyl 4-({1-[(4-chlorophenyl)methyl]-1H-benzimidazol-2-yl}methyl)piperazine-1-carboxylate]
going into solution [10]: failed to go into solution
Ki (human H1 receptor; [15]): 76 nM
Ki (human 5-HT2CR [7]; [18]): 2260 nM
Ki (human 5-HT2AR [8]; clemizole analogs, recombinant human receptor, read-out: binding affinity (Ki) 5-HT2AR): 2380 nM
Ki (human 5-HT2BR [9]; [17]): 482 nM

CC(C)C[C@H]1C(=O)N2CCC[C@H]2[C@]2(O)O[C@](NC(=O)[C@@H]3C=C4c5cccc6[nH]c(Br)c(c56)C[C@H]4N(C)C3)(C(C)C)C(=O)N12 [bromocriptine]
toxicity after 90-min exposure (scn1lab mutant zebrafish [2]; concentrations higher than 10 μM): toxicity
